Measurements: patent publication US9067934B2, “Bicyclic pyridinones” (Pfizer Inc., priority 2011, dated 2015)
Structures can show the parent of a compound that is named as a salt.

Test system: production of amyloid beta protein Aβ(1-42) (γ-secretase) in human WT-APP overexpressing CHO cells
Experiment: Cell-Based γ-Secretase Assay with ELISA Readout
Conditions: human WT-APP overexpressing CHO cells, ~24 hours at 37° C., Aβ(1-42) ELISA; footnotes: a = geometric mean of >15 determinations, b = single determination, c = geometric mean of 7-15 determinations; read-out: Aβ 42B IC50 (Geometric Mean of 2-6 Determinations)
Experimental: Cell-Based γ-Secretase Assay with ELISA Readout
The ability of compounds to modulate production of amyloid beta protein Aβ(1-42) was determined using human WT-APP overexpressing CHO cells. Cells were plated at 22,000 cells/100 μL well in 96 well tissue culture treated, clear plates (Falcon) in DMEM/F12 based medium and incubated for 24 hours at 37° C. Compounds for testing were diluted in 100% DMSO to achieve an eleven points, half log, dose response for IC50 determinations. Compounds were added in fresh medium to achieve 1% final DMSO. Appropriate vehicle or inhibitor controls were added into control wells individually to obtain minimum or maximum inhibition values, respectively, for the assay signal window before the plates were incubated for ˜24 hours at 37° C. This procedure produces conditioned media in each well which is tested for Aβ(1-42) levels in the ELISA detection step described next. The remaining cell cultures in each well are also tested for cell toxicity as described below.
Coating of ELISA assay plates was initiated by addition of 50 μL/well of an in-house Aβ(1-42) specific antibody at (3 μg/mL) in 0.1 M NaHCO3 (pH 9.0) into black 384-well Maxisorp® plates (Nunc) and incubated overnight at 4° C. The capture antibody was then aspirated from the ELISA assay plates and plates were washed 4×100 μL with Wash Buffer (Dulbecco's PBS, 0.05% Tween 20). 90 μL/well of Blocking Buffer (Dulbecco's PBS, 1.0% BSA (Sigma A7030)) was then added to plates. Ambient temperature incubation was allowed to proceed for a minimum of two hours. Blocking buffer was then removed and 20 μL/well Assay Buffer (Dulbecco's PBS, 1.0% BSA (Sigma A7030), 0.05% Tween 20) was then added. At this point, 40 μL (in duplicate) of experimental conditioned media (described above) were transferred into wells of the blocked ELISA plates containing the capture antibody, followed by overnight incubation at 4° C. Cell toxicity was also measured in the corresponding remaining cells after removal of the conditioned media for the Aβ(1-42) assay by a colorimetric cell proliferation assay (CellTiter 96® AQueous One Solution Cell Proliferation Assay, Promega) according to the manufacturer's instructions.
After overnight incubation of the ELISA assay plates at 4° C., unbound Aβ peptides were removed via (4×100 μL) washes with Wash Buffer. Europium (Eu) labeled (custom labeled, Perkin Elmer) Aβ(1-16) 6e10 Monoclonal Antibody (Covance #SIG-39320) was added, (50 μL/well Eu-6e10 @ 1:10,000, 20 uM EDTA) in Assay Buffer. Incubation at ambient temperature for a minimum of 2 hours was followed by (4×100 μL) washes with Wash Buffer, before 30 μL/well of Delfia Enhancement Solution (Perkin Elmer) was added. Following an one hour ambient temperature incubation, the plates were read on an EnVision plate reader (Perkin Elmer) using standard DELFIA TRF settings. Data analysis including inhibitory IC50 determination was performed using nonlinear regression fit analysis (in-house software) and the appropriate plate mean values for the maximum and minimum inhibition controls.

Q: With Cc1cn(-c2ccc3n(c2=O)CCN(CCOc2ncc(F)cc2-c2csc(C(F)(F)F)n2)C3=O)cn1 [Example 75, 2-[2-({5-fluoro-3-[2-(trifluoromethyl)-1,3-thiazol-4-yl]pyridin-2-yl}oxy)ethyl]-7-(4-methyl-1H-imidazol-1-yl)-3,4-dihydro-2H-pyrido[1,2-a]pyrazine-1,6-dione] as the compound, how does the IC50 read?
A: Its IC50 is 62.3 nM.

Q: For Cc1cc(-c2ccc3n(c2=O)CCN(CCOc2ccc(Cl)cc2C(F)(F)F)C3=O)ccn1 [Example 116, 2-{2-[4-chloro-2-(trifluoromethyl)phenoxy]ethyl}-7-(2-methylpyridin-4-yl)-3,4-dihydro-2H-pyrido[1,2-a]pyrazine-1,6-dione], which IC50 is on record?
A: The IC50 was 3490 nM.

Q: Which IC50 does the source give for Cc1cn(-c2ccc3n(c2=O)CCN([C@@H](C)COc2ccc(Cl)cc2S(F)(F)(F)(F)F)C3=O)cn1 [Example 119, 2-{(2S)-1-[4-Chloro-2-(pentafluoro-λ^6-sulfanyl)phenoxy]propan-2-yl}-7-(4-methyl-1H-imidazol-1-yl)-3,4-dihydro-2H-pyrido[1,2-a]pyrazine-1,6-dione] here?
A: Its IC50 is 7.49 nM.

Q: Cc1cn(-c2ccc3n(c2=O)CCN(CCOc2ccccc2-c2cccc(F)c2)C3=O)cn1 [Example 88, 2-{2-[(3′-fluorobiphenyl-2-yl)oxy]ethyl}-7-(4-methyl-1H-imidazol-1-yl)-3,4-dihydro-2H-pyrido[1,2-a]pyrazine-1,6-dione, formate salt] was tested. Which IC50 did it give?
A: Its IC50 is 75.4 nM.

Q: Which IC50 does the source give for Cc1cn(-c2ccc3n(c2=O)CCN(CCOc2ccc(F)c4oc5ccccc5c24)C3=O)cn1 [Example 87, 2-{2-[(4-fluorodibenzo[b,d]furan-1-yl)oxy]ethyl}-7-(4-methyl-1H-imidazol-1-yl)-3,4-dihydro-2H-pyrido[1,2-a]pyrazine-1,6-dione] here?
A: Its IC50 is 22.8 nM.

Q: How did the IC50 turn out when Cc1cccc(-c2ccccc2OCCN2CCn3c(ccc(-n4cnc(C)c4)c3=O)C2=O)c1 [Example 95, 2-{2-[(3′-methylbiphenyl-2-yl)oxy]ethyl}-7-(4-methyl-1H-imidazol-1-yl)-3,4-dihydro-2H-pyrido[1,2-a]pyrazine-1,6-dione, formate salt] was run?
A: Its IC50 is 143 nM.

Q: Which IC50 does the source give for Cc1cn(-c2ccc3n(c2=O)CCN(CCOc2cnc(C(F)(F)F)c4ccccc24)C3=O)cn1 [Example 86, 7-(4-methyl-1H-imidazol-1-yl)-2-(2-{[1-(trifluoromethyl)isoquinolin-4-yl]oxy}ethyl)-3,4-dihydro-2H-pyrido[1,2-a]pyrazine-1,6-dione, trifluoroacetate salt] here?
A: Its IC50 is 107 nM.

Q: How did the IC50 turn out when Cc1cn(-c2ccc3n(c2=O)CCN([C@@H](C)COc2ccc(Cl)cc2C(F)(F)F)C3=O)cn1 [Example 107, 2-{(2S)-1-[4-chloro-2-(trifluoromethyl)phenoxy]propan-2-yl}-7-(4-methyl-1H-imidazol-1-yl)-3,4-dihydro-2H-pyrido[1,2-a]pyrazine-1,6-dione] was run?
A: The IC50 was 34.4 nM.

Q: Which IC50 does the source give for Cc1cn(-c2ccc3n(c2=O)CCN(CCOc2ccccc2-c2ccc(C#N)cc2)C3=O)cn1 [Example 90, 2′-{2-[7-(4-methyl-1H-imidazol-1-yl)-1,6-dioxo-1,3,4,6-tetrahydro-2H-pyrido[1,2-a]pyrazin-2-yl]ethoxy}biphenyl-4-carbonitrile, formate salt] here?
A: Its IC50 is 147 nM.

Q: For Cc1cn(-c2ccc3n(c2=O)CCN(CCOc2ccc(Cl)cc2C(C)(C)O)C3=O)cn1 [Example 44, 2-{2-[4-chloro-2-(1-hydroxy-1-methylethyl)phenoxy]ethyl}-7-(4-methyl-1H-imidazol-1-yl)-3,4-dihydro-2H-pyrido[1,2-a]pyrazine-1,6-dione, trifluoroacetate salt], which IC50 is on record?
A: The IC50 was 142 nM.

Q: With Cc1cn(-c2ccc3n(c2=O)CCN(CCOc2cccc4cc(F)ccc24)C3=O)cn1 [Example 53, 2-{2-[(6-fluoro-1-naphthyl)oxy]ethyl}-7-(4-methyl-1H-imidazol-1-yl)-3,4-dihydro-2H-pyrido[1,2-a]pyrazine-1,6-dione, trifluoroacetate salt] as the compound, how does the IC50 read?
A: The IC50 was 26.2 nM.

Q: Which IC50 does the source give for Cc1cc(-c2ccc3n(c2=O)CCN(CCOc2cccc4ccc(F)cc24)C3=O)ccn1 [Example 115, 2-{2-[(7-fluoronaphthalen-1-yl)oxy]ethyl}-7-(2-methylpyridin-4-yl)-3,4-dihydro-2H-pyrido[1,2-a]pyrazine-1,6-dione] here?
A: The IC50 was 489 nM.

Q: For Cc1cn(-c2ccc3n(c2=O)CCN(CCOc2ccc(C(F)(F)F)cc2C(F)(F)F)C3=O)cn1 [Example 29, 2-{2-[2,4-bis(trifluoromethyl)phenoxy]ethyl}-7-(4-methyl-1H-imidazol-1-yl)-3,4-dihydro-2H-pyrido[1,2-a]pyrazine-1,6-dione], which IC50 is on record?
A: The IC50 was 154 nM.

Q: Cc1cn(-c2ccc3n(c2=O)CCN(C(C)C(C)Oc2ccccc2S(F)(F)(F)(F)F)C3=O)cn1 (single isomer, unassigned) [Example 124, 7-(4-methyl-1H-imidazol-1-yl)-2-{3-[2-(pentafluoro-λ^6-sulfanyl)phenoxy]butan-2-yl}-3,4-dihydro-2H-pyrido[1,2-a]pyrazine-1,6-dione] was tested. Which IC50 did it give?
A: The IC50 was 2310 nM.

Q: Cc1cn(-c2ccc3n(c2=O)CCN(CCOc2cccc4oc5ccccc5c24)C3=O)cn1 [Example 42, 2-[2-(dibenzo[b,d]furan-1-yloxy)ethyl]-7-(4-methyl-1H-imidazol-1-yl)-3,4-dihydro-2H-pyrido[1,2-a]pyrazine-1,6-dione, trifluoroacetate salt] was tested. Which IC50 did it give?
A: The IC50 was 5.31 nM.

Q: With Cc1cn(-c2ccc3n(c2=O)CCN(CCOc2ccc(F)cc2-c2csc(C(F)(F)F)n2)C3=O)cn1 [Example 52, 2-(2-{4-fluoro-2-[2-(trifluoromethyl)-1,3-thiazol-4-yl]phenoxy}ethyl)-7-(4-methyl-1H-imidazol-1-yl)-3,4-dihydro-2H-pyrido[1,2-a]pyrazine-1,6-dione] as the compound, how does the IC50 read?
A: Its IC50 is 23.5 nM.

Q: Cc1cn(-c2ccc3n(c2=O)CCN(CCOc2ccnc4cc(C(F)(F)F)c(Cl)cc24)C3=O)cn1 [Example 47, 2-(2-{[6-chloro-7-(trifluoromethyl)quinolin-4-yl]oxy}ethyl)-7-(4-methyl-1H-imidazol-1-yl)-3,4-dihydro-2H-pyrido[1,2-a]pyrazine-1,6-dione] was tested. Which IC50 did it give?
A: The IC50 was 9.48 nM.

Q: With Cc1cn(-c2ccc3n(c2=O)CCN(C(C)C(C)Oc2ccccc2S(F)(F)(F)(F)F)C3=O)cn1 (single isomer, unassigned) [Example 127, 7-(4-methyl-1H-imidazol-1-yl)-2-{3-[2-(pentafluoro-λ^6-sulfanyl)phenoxy]butan-2-yl}-3,4-dihydro-2H-pyrido[1,2-a]pyrazine-1,6-dione] as the compound, how does the IC50 read?
A: The IC50 was 1070 nM.

Q: With Cc1cn(-c2ccc3n(c2=O)CCN([C@@H](C)COc2ccccc2S(F)(F)(F)(F)F)C3=O)cn1 [Example 120, 7-(4-methyl-1H-imidazol-1-yl)-2-{(2S)-1-[2-(pentafluoro-λ^6-sulfanyl)phenoxy]propan-2-yl}-3,4-dihydro-2H-pyrido[1,2-a]pyrazine-1,6-dione] as the compound, how does the IC50 read?
A: Its IC50 is 17.8 nM.

Q: For Cc1cn(-c2ccc3n(c2=O)CCN(CCCOc2cc(C)c(Cl)c(C)c2)C3=O)cn1 [Example 28, 2-[3-(4-chloro-3,5-dimethylphenoxy)propyl]-7-(4-methyl-1H-imidazol-1-yl)-3,4-dihydro-2H-pyrido[1,2-a]pyrazine-1,6-dione], which IC50 is on record?
A: Its IC50 is 31.9 nM.

Q: How did the IC50 turn out when Cc1cn(-c2ccc3n(c2=O)CCN(CCCOc2ccccc2C(C)(C)C)C3=O)cn1 [Example 32, 2-[3-(2-tert-butylphenoxy)propyl]-7-(4-methyl-1H-imidazol-1-yl)-3,4-dihydro-2H-pyrido[1,2-a]pyrazine-1,6-dione, trifluoroacetate salt] was run?
A: The IC50 was 143 nM.

Q: With Cc1cn(-c2ccc3n(c2=O)CCN(CCOc2ccccc2-c2cc(C(F)(F)F)on2)C3=O)cn1 [Example 39, 7-(4-methyl-1H-imidazol-1-yl)-2-(2-{2-[5-(trifluoromethyl)isoxazol-3-yl]phenoxy}ethyl)-3,4-dihydro-2H-pyrido[1,2-a]pyrazine-1,6-dione, trifluoroacetate salt] as the compound, how does the IC50 read?
A: Its IC50 is 525 nM.

Q: For Cc1cn(-c2ccc3n(c2=O)CCN(CCOc2cccc4c2OC(F)(F)O4)C3=O)cn1 [Example 109, 2-{2-[(2,2-difluoro-1,3-benzodioxol-4-yl)oxy]ethyl}-7-(4-methyl-1H-imidazol-1-yl)-3,4-dihydro-2H-pyrido[1,2-a]pyrazine-1,6-dione], which IC50 is on record?
A: Its IC50 is 275 nM.
